According to US9868743B2, “Macrocyclic molecules as HCV entry inhibitors” (priority 2013, dated 2018):
Like-named read-outs stand apart in the source and are kept apart here.

Test system: HCV pseudoparticles, genotype 1a HCV E1 and E2 envelope (H77C isolate)
Test: HCV pseudoparticle infection assay (luciferase reporter, Huh7 cells)
Format: cell-based, HCV genotype 1a (H77C)
Details: Hepatitis C virus, Huh-7, 48 h
[1] = read-out: EC50 (nM) 1a (H77C), HCV pseudoparticle entry into Huh7 cells, luciferase 2 days after infection, average of duplicates
[2] = read-out: EC50 (nM) 1a (H77C), HCV pseudoparticle entry into Huh7 cells, luciferase 2 days after infection, class symbol
[3] = HCV pseudoparticle entry into Huh7 cells, luciferase 2 days after infection, class symbol, read-out: EC50 (nM) 1a (H77C)

Compound | EC50 [2] [nM] | also measured
CC1(C)CNC(=O)c2ccc(cc2)Nc2nc(nc(OCC(F)(F)F)n2)NCc2ccc(c(Cl)c2)OCCCN(C(=O)c2ccccc2)C1 [Example 1001] | 0.01 to 10 | EC50 [1]: 0.864 nM
CC1(C)CNC(=O)c2ccc(cc2)Nc2nc(nc(OCC(F)(F)F)n2)NCc2ccc(c(Cl)c2)OCCCN(C(=O)Cc2ccccc2)C1 [Example 1002] | 0.01 to 10 | –
CC1(C)CNC(=O)c2ccc(cc2)Nc2nc(nc(OCC(F)(F)F)n2)NCc2ccc(c(Cl)c2)OCCCN(C(=O)CCc2ccccc2)C1 [Example 1003] | 0.01 to 10 | –
CC1(C)CNC(=O)c2ccc(cc2)Nc2nc(nc(OCC(F)(F)F)n2)NCc2ccc(c(Cl)c2)OCCCN(C(=O)CCCc2ccccc2)C1 [Example 1004] | 0.01 to 10 | –
CC1(C)CNC(=O)c2ccc(cc2)Nc2nc(nc(OCC(F)(F)F)n2)NCc2ccc(c(Cl)c2)OCCCN(C(=O)/C=C/c2ccccc2)C1 [Example 1005] | 0.01 to 10 | EC50 [1]: 1.51 nM
CC1(C)CNC(=O)c2ccc(cc2)Nc2nc(nc(OCC(F)(F)F)n2)NCc2ccc(c(Cl)c2)OCCCN(C(=O)/C=C/c2ccoc2)C1 [Example 1006] | 0.01 to 10 | –
CC1(C)CNC(=O)c2ccc(cc2)Nc2nc(nc(OCC(F)(F)F)n2)NCc2ccc(c(Cl)c2)OCCCN(C(=O)/C=C/c2ccco2)C1 [Example 1007] | 0.01 to 10 | –
CC1(C)CNC(=O)c2ccc(cc2)Nc2nc(nc(OCC(F)(F)F)n2)NCc2ccc(c(Cl)c2)OCCCN(C(=O)CCC(=O)O)C1 [Example 1008] | 10 to 1000 | EC50 [1]: 23.9 nM
CC1(C)CNC(=O)c2ccc(cc2)Nc2nc(nc(OCC(F)(F)F)n2)NCc2ccc(c(Cl)c2)OCCCN(C(=O)CN)C1 [Example 1009] | 0.01 to 10 | –
CC1(C)CNC(=O)c2ccc(cc2)Nc2nc(nc(OCC(F)(F)F)n2)NCc2ccc(c(Cl)c2)OCCCN(C(=O)CNC(=O)OC(C)(C)C)C1 [Example 1010] | 0.01 to 10 | –
CC1(C)CNC(=O)c2ccc(cc2)Nc2nc(nc(OCC(F)(F)F)n2)NCc2ccc(c(Cl)c2)OCCCN(C(=O)[C@@H]2C[C@H]2c2ccccc2)C1 [Example 1011] | 0.01 to 10 | –
CC1(C)CNC(=O)c2ccc(cc2)Nc2nc(nc(OCC(F)(F)F)n2)NCc2ccc(c(Cl)c2)OCCCN(C(=O)c2ncoc2-c2ccccc2)C1 [Example 1012] | 0.01 to 10 | –
CC1(C)CNC(=O)c2ccc(cc2)Nc2nc(nc(OCC(F)(F)F)n2)NCc2ccc(c(Cl)c2)OCCCN(C(=O)CCc2nc3ccccc3s2)C1 [Example 1013] | 0.01 to 10 | –
CC1(C)CNC(=O)c2ccc(cc2)Nc2nc(nc(OCC(F)(F)F)n2)NCc2ccc(c(Cl)c2)OCCCN(C(=O)CCc2ccncc2)C1 [Example 1014] | 0.01 to 10 | –
CC1(C)CNC(=O)c2ccc(cc2)Nc2nc(nc(OCC(F)(F)F)n2)NCc2ccc(c(Cl)c2)OCCCN(C(=O)CC(C)(C)n2cccc2)C1 [Example 1015] | 0.01 to 10 | EC50 [1]: 0.932 nM
CC1(C)CNC(=O)c2ccc(cc2)Nc2nc(nc(OCC(F)(F)F)n2)NCc2ccc(c(Cl)c2)OCCCN(C(=O)Cc2cccnc2)C1 [Example 1016] | 0.01 to 10 | –
CC1(C)CNC(=O)c2ccc(cc2)Nc2nc(nc(OCC(F)(F)F)n2)NCc2ccc(c(Cl)c2)OCCCN(C(=O)CCC(=O)c2ccccc2)C1 [Example 1017] | 0.01 to 10 | –
C#CCOC(=O)N1CCCOc2ccc(cc2Cl)CNc2nc(nc(OCC(F)(F)F)n2)Nc2ccc(cc2)C(=O)NCC(C)(C)C1 [Example 2001] | 0.01 to 10 | –

Compound | EC50 [2] [nM] | also measured
C=COC(=O)N1CCCOc2ccc(cc2Cl)CNc2nc(nc(OCC(F)(F)F)n2)Nc2ccc(cc2)C(=O)NCC(C)(C)C1 [Example 2002] | 0.01 to 10 | –
C=CCOC(=O)N1CCCOc2ccc(cc2Cl)CNc2nc(nc(OCC(F)(F)F)n2)Nc2ccc(cc2)C(=O)NCC(C)(C)C1 [Example 2003] | 0.01 to 10 | –
CC(C)[C@H]1CC[C@H](C)C[C@@H]1OC(=O)N1CCCOc2ccc(cc2Cl)CNc2nc(nc(OCC(F)(F)F)n2)Nc2ccc(cc2)C(=O)NCC(C)(C)C1 [Example 2004] | 0.01 to 10 | –
CC(C)[C@@H]1CC[C@@H](C)C[C@H]1OC(=O)N1CCCOc2ccc(cc2Cl)CNc2nc(nc(OCC(F)(F)F)n2)Nc2ccc(cc2)C(=O)NCC(C)(C)C1 [Example 2005] | 0.01 to 10 | EC50 [1]: 2.85 nM
CC1(C)CNC(=O)c2ccc(cc2)Nc2nc(nc(OCC(F)(F)F)n2)NCc2ccc(c(Cl)c2)OCCCN(C(=O)Oc2ccccc2)C1 [Example 2006] | – | EC50 [3]: 0.01 to 10 nM
COc1ccc(OC(=O)N2CCCOc3ccc(cc3Cl)CNc3nc(nc(OCC(F)(F)F)n3)Nc3ccc(cc3)C(=O)NCC(C)(C)C2)cc1 [Example 2007] | – | EC50 [3]: 0.01 to 10 nM
CC1(C)CNC(=O)c2ccc(cc2)Nc2nc(nc(OCC(F)(F)F)n2)NCc2ccc(c(Cl)c2)OCCCN(C(=O)Oc2ccc([N+](=O)[O-])cc2)C1 [Example 2008] | – | EC50 [3]: 0.01 to 10 nM
CC1(C)CNC(=O)c2ccc(cc2)Nc2nc(nc(OCC(F)(F)F)n2)NCc2ccc(c(Cl)c2)OCCCN(C(=O)Oc2cccc3ccccc23)C1 [Example 2009] | – | EC50 (HCV pseudoparticle entry into Huh7 cells, luciferase 2 days after infection, average of duplicates, read-out: EC50 (nM) 1a (H77C)): 1.26 nM; EC50 [3]: 0.01 to 10 nM
CC1(C)CNC(=O)c2ccc(cc2)Nc2nc(nc(OCC(F)(F)F)n2)NCc2ccc(c(Cl)c2)OCCCN(C(=O)Oc2ccc3ccccc3c2)C1 [Example 2010] | – | EC50 [3]: 0.01 to 10 nM
CC1(C)CNC(=O)c2ccc(cc2)Nc2nc(nc(OCc3cccnc3)n2)NCc2ccc(c(Cl)c2)OCCCN(C(=O)OCc2cccnc2)C1 [Example 2011] | 10 to 1000 | –
CC1(C)CNC(=O)c2ccc(cc2)Nc2nc(nc(OCC(F)(F)F)n2)NCc2ccc(c(Cl)c2)OCCCN(C(=O)OCCOCc2ccccc2)C1 [Example 2013] | 0.01 to 10 | –
Cc1oc(=O)oc1COC(=O)N1CCCOc2ccc(cc2Cl)CNc2nc(nc(OCC(F)(F)F)n2)Nc2ccc(cc2)C(=O)NCC(C)(C)C1 [Example 2014] | 0.01 to 10 | –
Cc1oc(=O)oc1COC(=O)N1CCCOc2ccc(cc2Cl)CNc2nc(nc(OCc3ccc(C(F)(F)F)cc3)n2)Nc2ccc(cc2)C(=O)NCC(C)(C)C1 [Example 2015] | 0.01 to 10 | –
Cc1oc(=O)oc1COC(=O)N1CCCOc2ccc(cc2Cl)CNc2nc(nc(OCc3ccc(C(C)C)cc3)n2)Nc2ccc(cc2)C(=O)NCC(C)(C)C1 [Example 2016] | 0.01 to 10 | EC50 [1]: 0.109 nM
CC1(C)CNC(=O)c2ccc(cc2)Nc2nc(nc(OCC(F)(F)F)n2)NCc2ccc(c(Cl)c2)OCCCN(C#N)C1 [Example 3001] | 0.01 to 10 | –
CC1(C)CNC(=O)c2ccc(cc2)Nc2nc(nc(OCC(F)(F)F)n2)NCc2ccc(c(Cl)c2)OCCCN(S(=O)(=O)/C=C/c2ccccc2)C1 [Example 4001] | 0.01 to 10 | EC50 [1]: 0.555 nM
Cc1oc(=O)oc1CN1CCCOc2ccc(cc2Cl)CNc2nc(nc(OCC(F)(F)F)n2)Nc2ccc(cc2)C(=O)NCC(C)(C)C1 [Example 5001] | 0.01 to 10 | EC50 [1]: 7.67 nM
Cc1oc(=O)oc1CN1CCCOc2ccc(cc2Cl)CN(Cc2oc(=O)oc2C)c2nc(nc(OCC(F)(F)F)n2)Nc2ccc(cc2)C(=O)NCC(C)(C)C1 [Example 5002] | 0.01 to 10 | –
